Patent publication US4645747A, “Specific binding assay technique” (priority 1979, dated 1987)
Where two headings read alike, the source gives them in different places.

Tests used:
[1] = assay type: physicochemical; settings: for % Estriol extracted, Tracer only: ^125I estriol, no unlabelled estriol; for % Estriol extracted, with 250 ng/ml: with 250 ng/ml unlabelled estriol
Text: The choice of the preferred solvent for each system is made by carrying out a simple experiment in each case as illustrated hereinafter.

[2] = cited from earlier work
RIA kit for estradiol = test: Estradiol 17β (^3H) RIA, kit protocol vs solvent extraction (Example 5); assay type: binding; settings: for % B/Bo Expt. A (kit): kit protocol; for % B/Bo Expt. B (solvent extn.): solvent extraction
Description: A commercially available (^3 H) RIA kit for estradiol supplied by Isopac was tested by the solvent extraction method as follows:
All kit components were prepared according to kit directions. One experiment (A) was carried out exactly according to the kit protocol. A second, parallel experiment (B) was performed according to kit protocol up to, and including, the incubation step. […] After phase separation (about 10 minutes) the upper solvent phase, containing the free estradiol, was transferred to scintillation vials to which 5 ml of scintillation liquid (Instagel II, trademark of Packard) were added and the radioactivity determined.

[3] = test system: phenobarbitone antiserum R-66X; test: Phenobarbitone RIA with solvent extraction (Example 6); assay type: binding; settings: mean of duplicates; for % B/Bo MIBK: methyl isobutyl ketone; for % B/Bo TBME: tert-butyl methyl ether
Description: The components used for a phenobarbitone RIA were a (^3 H) phenobarbitone tracer (N.E.N), a phenobarbitone antiserum R-66X (Technion) and tris-maleate assay buffer (pH 7.3, 0.078M Tris, 0.035M maleic acid) containing 0.1% PVP (polyvinyl pyrrolidone).
The tracrer, 100 μl (approx. 10 nono Ci/tube) was added to test-tubes followed by the addition of 50 μl phenobarbitone standards and 100 μl of diluted antiserum. All test-tubes were incubated overnight at 4° C. After incubation, 0.5 ml of solvent (tert-butyl methyl ether, TBME in one experiment and, MIBK in a parallel experiment) were added to each assay tube and vortexed for 20-30 seconds. After phase separation on standing, the aqueous phase was transferred to scintillation vials for radioactivity determination. The following Table 4, summarizes mean values (of duplicates) expressed as % B/Bo.

[4] = test system: anti-THC antiserum, R-41Va; test: THC RIA with solvent extraction or charcoal separation (Example 7); assay type: binding; settings: for % B/Bo Charcoal: dextran-coated charcoal
Description: An assay using the solvent extraction method was developed for tetrahydrocannabinol (THC) metabolites using a (^3 H)-THC tracer (Amersham). All assay components were prepared in tris-maleate buffer (pH 7.3) containing 0.2% PVP and 0.1% Triton X450 (trademark of Rohm and Haas). […]. The solvent, 500 μl, was added to the assay tubes and vortexed for 20-30 seconds. […]. The following Table 5 summarizes the results, expressed as % B/Bo for the three experiments.

Compound: ClCc1ccccc1 [Benzyl chloride]
- % Estriol extracted, Tracer only [1]: 78-80%
- % Estriol extracted, with 250 ng/ml [1]: 76-78%
- % solubility in water ([2]; in water): 0.05%

Compound: ClC(Cl)(Cl)Cl [Carbon tetrachloride, carbon tetrachloride]
- % Estriol extracted, Tracer only [1]: 35-38%
- % Estriol extracted, with 250 ng/ml [1]: 38-40%
- % solubility in water ([2]; in water): 0.08%

Compound: ClCCl [Dichloromethane, dichloromethane]
- % Estriol extracted, Tracer only [1]: 45-47%
- % solubility in water ([2]; water): 2%

Compound: C[C@]12CC[C@@H]3c4ccc(O)cc4CC[C@H]3[C@@H]1CC[C@@H]2O [Estradiol, Estradiol 17β]
- % B/Bo Expt. A (kit) (RIA kit for estradiol; standard 25.0 pg/ml): 89.0%
- % B/Bo Expt. B (solvent extn.) (RIA kit for estradiol; standard 25.0 pg/ml): 89.0%
- % B/Bo Expt. A (kit) (RIA kit for estradiol; standard 50.0 pg/ml): 85.0%
- % B/Bo Expt. B (solvent extn.) (RIA kit for estradiol; standard 50.0 pg/ml): 76.0%
- % B/Bo Expt. A (kit) (RIA kit for estradiol; standard 100.0 pg/ml): 59.0%
- % B/Bo Expt. B (solvent extn.) (RIA kit for estradiol; standard 100.0 pg/ml): 40.0%
- % B/Bo Expt. A (kit) (RIA kit for estradiol; standard 200.0 pg/ml): 40.0%
- % B/Bo Expt. B (solvent extn.) (RIA kit for estradiol; standard 200.0 pg/ml): 23.0%
- % B/Bo Expt. A (kit) (RIA kit for estradiol; standard 400.0 pg/ml): 21.0%
- % B/Bo Expt. B (solvent extn.) (RIA kit for estradiol; standard 400.0 pg/ml): 14.0%

Compound: CCOC(C)=O [Ethyl acetate, ethyl acetate]
- % Estriol extracted, Tracer only [1]: 90-94%
- % Estriol extracted, with 250 ng/ml [1]: 90-92%
- % solubility in water ([2]; in water): 3.3%

Compound: CC(=O)CC(C)C [Methyl isobutyl ketone, methyl isobutyl ketone]
- % Estriol extracted, Tracer only [1]: 91-94%
- % Estriol extracted, with 250 ng/ml [1]: 90-94%
- % solubility in water ([2]; in water): 1.9%

Compound: CCC1(c2ccccc2)C(=O)NC(=O)NC1=O [Phenobarbitone, phenobarbitone]
- % B/Bo MIBK ([3]; standard 5 ng/ml): 73.0%
- % B/Bo TBME ([3]; standard 5 ng/ml): 96.5%
- % B/Bo MIBK ([3]; standard 10 ng/ml): 63.0%
- % B/Bo TBME ([3]; standard 10 ng/ml): 79.0%
- % B/Bo MIBK ([3]; standard 25 ng/ml): 45.0%
- % B/Bo TBME ([3]; standard 25 ng/ml): 52.0%
- % B/Bo MIBK ([3]; standard 50 ng/ml): 30.0%
- % B/Bo TBME ([3]; standard 50 ng/ml): 30.0%
- % B/Bo MIBK ([3]; standard 100 ng/ml): 19.0%
- % B/Bo TBME ([3]; standard 100 ng/ml): 23.0%

Compound: CCCCCc1cc(O)c2c(c1)OC(C)(C)[C@@H]1CCC(C)=C[C@@H]21 [THC, tetrahydrocannabinol]
- % B/Bo MIBK ([4]; standard 1 ng/ml): 98%
- % B/Bo Charcoal ([4]; standard 1 ng/ml): 98%
- % B/Bo t-amyl alcohol ([4]; standard 1 ng/ml): 90%
- % B/Bo MIBK ([4]; standard 2 ng/ml): 84%
- % B/Bo t-amyl alcohol ([4]; standard 2 ng/ml): 86%
- % B/Bo MIBK ([4]; standard 4 ng/ml): 68%
- % B/Bo Charcoal ([4]; standard 4 ng/ml): 86%
- % B/Bo t-amyl alcohol ([4]; standard 4 ng/ml): 77%
- % B/Bo MIBK ([4]; standard 10 ng/ml): 30%
- % B/Bo Charcoal ([4]; standard 10 ng/ml): 55%
- % B/Bo t-amyl alcohol ([4]; standard 10 ng/ml): 36%
- % B/Bo MIBK ([4]; standard 20 ng/ml): 18%
- % B/Bo Charcoal ([4]; standard 20 ng/ml): 32%
- % B/Bo t-amyl alcohol ([4]; standard 20 ng/ml): 15%
- % B/Bo MIBK ([4]; standard 40 ng/ml): 8%
- % B/Bo Charcoal ([4]; standard 40 ng/ml): 21%
- % B/Bo t-amyl alcohol ([4]; standard 40 ng/ml): 6%

Compound: CCN(CC)CC [Triethyl amine]
- % Estriol extracted, Tracer only [1]: 86-91%
- % Estriol extracted, with 250 ng/ml [1]: 86-90%
